{
  "source": "patent US10662214B2",
  "about": "“Compound of 4′-thionucleoside, as well as preparation method therefor, pharmaceutical composition thereof and application thereof” (Sichuan Kelun-Biotech Biopharmaceutical Co., Ltd., priority 2015, dated 2020)",
  "key": {"[1]": {"system": "human pancreatic cancer cell BxPC-3", "assay": "Subcutaneous xenograft of human pancreatic cancer cell BxPC-3 in a nude mouse (Experimental example 4)", "type": "in vivo", "experimental": "According to methods similar to those in sections 1 to 3 in Experimental example 2, pancreatic cancer cell BxPC-3 was cultured as a monolayer in vitro, and inoculated; the animals were randomized into groups; and samples were prepared.\nMice bearing a tumor having a volume of 80-250 mm^3 were selected, and randomized into 6 groups (8 mice per group). The dosing volume was 10 mL/kg.\n(§1) For statistical calculations of the test indexes, please refer to Experimental example 2.\nThe test results obtained by administrating (intravenous administration (i.v.) or oral administration (p.o.)) once a week for 3 weeks are shown in table 7-2."}, "[2]": {"assay": "Oral toxicity test in mice (administration for 7 days)", "type": "in vivo", "conditions": "once per day for 7 days", "experimental": "Normal Male and female Kunming mice (SPF grade, obtained from Laboratory Animal Center in Sichuan Academy of Chinese Medicine Science) were randomized by weight into groups. The test compound and vehicle control were formulated according to Experimental example 2. The dosage volume was 10 mL/kg, and the administration was performed by oral gavage, once per day for 7 consecutive days."}, "[3]": {"system": "colorectal cancer cell HCT-15", "assay": "CCK-8 inhibition of proliferation, HCT-15", "type": "cell-based, human", "experimental": "(§2) The tumor cell lines employed in the present experiment were gastric cancer cell NCI-N87 (obtained from Guangzhou Jennio Biological Technology Co., Ltd.), colorectal cancer cell HCT-116 (obtained from Chengdu Center for Safety Evaluation of Drugs), colorectal cancer cell HCT-15 and pancreatic cancer cell BxPC-3 (both obtained from ATCC, US).\n(§3) Each of the cell lines is cultured in a corresponding culture medium (RPMI-1640, IMDM and L-15 culture medium (manufacturer: Gibco)) supplemented with 10% heat inactivated Fetal Bovine Serum (manufacturer: Sigma), in an incubator at 37° C. and 5% CO2.\n(§4) For each type of tumor cells, a blank group, a vehicle group (containing 1‰ DMSO) and 8 groups with a test compound at concentrations of 5 nM, 10 nM, 50 nM, 100 nM, 500 nM, 1000 nM, 5000 nM, and 10000 nM (with each concentration in triplicate) were set.\n(§5) Appropriate amounts of test compounds were weighted, and dissolved in DMSO (cell culture grade, Sigma) to prepare stock solutions of various concentration gradients according to desired concentrations. During incubation, they were diluted by 1000 times as necessary, and incubation solutions with various drug concentrations were prepared (compound stock solution:medium containing 2% FBS=1:1000).\n(§6) The experiment was performed according to a CCK-8 method as described below. Cancer cells to be tested were seeded in a 96-well culture plate at a concentration of 5˜10×10^4/mL (100 μL/well), followed by incubation at 37° C. and 5% CO2 for 24 h. The medium was discarded, and incubation solutions with different drug concentrations (200 μL) were respectively added to each well, and the cells were further incubated for 72 h. After the incubation, a CCK-8 solution (20 μL/well) was added to each well to be tested, and the incubation was continued for 4 h in the incubator. OD values at two wavelengths (Detection wavelength: 450 nm, and reference wavelength: 650 nm) were determined on a multifunctional fully-automatic microplate reader.\n(§7) The inhibitory rate of tumor cell growth was calculated according to the following formula: Inhibitory rate=[(ODvehicle−ODblank)−(ODdrug−ODblank)]/(ODvehicle−ODblank)*100%\n(§8) Based on the inhibitory rate, a concentration-inhibitory rate curve was fit using GraphPad prism 5.0 software, and IC50 was calculated."}, "[4]": {"system": "human pancreatic cancer cell BxPC-3", "assay": "Subcutaneous xenograft of human pancreatic cancer cell BxPC-3 in a nude mouse (Experimental example 3)", "type": "in vivo", "conditions": "once every 3 days, 4 times", "experimental": "According to methods similar to those in sections 1 to 2 in Experimental example 2, pancreatic cancer cell BxPC-3 was cultured as a monolayer in vitro, and inoculated, and the animals were randomized into groups.\nAn appropriate amount of the test compound was weighted out, and added in DMSO. The 10% solution of SE-β-CD was then added according to the desired concentration, and the final concentration of DMSO was adjusted to 2.5%. A gemcitabine injection (a positive control) was diluted to the desired concentration with physiological saline. A 10% solution of SE-β-CD containing 2.5% DMSO was prepared as a vehicle control.\nMice bearing a tumor having a volume of 100-200 mm^3 were selected, and randomized into 14 groups (7 mice per group). The dosing volume was 20 mL/kg, and the administration (intravenous administration (i.v.)) was performed once every 3 days, for 4 times in total.\nas §1"}, "[5]": {"system": "pancreatic cancer cell BxPC-3", "assay": "CCK-8 inhibition of proliferation, BxPC-3", "type": "cell-based, human", "experimental": "as §2, §3, §4, §5, §6, §7, §8"}, "[6]": {"assay": "Intravenous toxicity test in mice (administration for 7 days)", "type": "in vivo", "excerpt": "This test was used to investigate the toxic reactions after intravenous administration of compound C8 to normal KM mice for 7 consecutive days.\nKM mice passing the quarantine control were randomized into 4 groups (3 mice/gender/group). The test compound and vehicle control were formulated according to Experimental example 2. The mortality, appearance, behavior, mental status, secretion and excreta etc. of the animals were observed every day for 7 consecutive days after the administration, and the animals were anatomized on day 8."}, "[7]": {"system": "gastric cancer cell NCI-N87", "assay": "Subcutaneous xenograft of gastric cancer cell NCI-N87 in nude mice (Experimental example 2)", "type": "in vivo", "conditions": "for TGI (%): twice a week for 3 weeks; for Body weight change: 14 days after last administration vs beginning; for Tumor regression, CR (complete tumor regression): animals out of 8", "description": "This experimental example was used for the evaluation of the effectiveness of the compounds of the present invention in inhibiting the proliferation of a subcutaneous xenograft of human tumor cells via various routes of administration.\nGastric cancer cell NCI-N87 and colorectal cancer cell HCT-116 were cultured as a monolayer in vitro, and the culture conditions were RPMI-1640 culture medium supplemented with 10% heat inactivated Fetal Bovine Serum, and incubation in an incubator at 37° C. and 5% CO2. The cells were subcultured by treatment with trypsin-EDTA digestion.\nThe tumor cells were respectively inoculated into BALB/c nude mice (SPF grade, female, 16-18 g per mouse, about 6 to 8 weeks old, Beijing Vital River Laboratory Animal Technology Co., Ltd.).\nEach nude mouse was inoculated with about 2.5×10^6 HCT-116 tumor cells or about 3×10^6 NCI-N87 tumor cells (suspended in 0.1 ml PBS) subcutaneously into the underarm of the right flank. After the inoculated tumor reached a size in the range of about 100-200 mm^3, nude mice bearing a tumor that is too small (smaller than 100 mm^3) or too big (bigger than 200 mm^3) were removed from the study, and the remaining ones were randomized into groups.\nSulfobutyl ether-β-cyclodextrin (SE-β-CD) was formulated with physiological saline to form a 10% solution, which was then filtered through a 0.22 μm sterile filter for later use.\nAn appropriate amount of the test compound was weighted, and added in DMSO. The resultant solution was vortexed to uniformity, and the 10% solution of SE-β-CD was added according to the desired concentration. The solution was vortexed to uniformity, and the final concentration of DMSO was adjusted to 5%. A gemcitabine injection (a positive control) was directly diluted to the desired concentration with physiological saline. A 10% solution of SE-β-CD containing 5% DMSO was prepared as a vehicle control.\nMice bearing a tumor having a volume of about 100-200 mm^3 were selected, and randomized into 5 groups (8 mice per group). The dosing volume was 10 mL/kg, and the administration (intravenous administration (i.v.) or oral administration (p.o.)) was performed twice a week for 3 weeks. The tumor volume and body weight were measured twice a week after the administration, and the mortality of animals was observed every day.\nThe diameter of a tumor was measured, and the tumor volume was calculated according to the following formula: V=0.5a×b^2, wherein a and b respectively represent the major and minor diameters of a tumor. The anti-tumor effect was evaluated by the tumor growth inhibition (TGI) (%). TGI (%)=[1−(VT-end−VT-start)/(VC-end−VC-start)]*100%\nThe body weight of an animal was measured twice a week."}, "[8]": {"system": "human pancreatic cancer cell Capan-1", "assay": "Subcutaneous xenograft of human pancreatic cancer cell Capan-1 in a nude mouse (Experimental example 5)", "type": "in vivo", "conditions": "once every 3 days, 6 times", "experimental": "According to methods similar to those in sections 1 to 2 in Experimental example 2, pancreatic cancer cell Capan-1 was cultured as a monolayer in vitro, and inoculated, and the animals were randomized into groups.\nSamples were prepared as described in Experimental example 2.\nMice bearing a tumor having a volume of 100-200 mm^3 were selected, and randomized into 7 groups (7 mice per group).\nas §1"}, "[9]": {"system": "colorectal cancer cell HCT-116", "assay": "CCK-8 inhibition of proliferation, HCT-116", "type": "cell-based, human", "experimental": "as §2, §3\nFor each type of tumor cells, a blank group, a vehicle group (containing 1‰ DMSO) and 8 groups with a test compound at concentrations of 5 nM, 10 nM, 50 nM, 100 nM, 500 nM, 1000 nM, 5000 nM, and 10000 nM (with each concentration in triplicate) were set. […]\nThe experiment was performed according to a CCK-8 method as described below. […] OD values at two wavelengths (Detection wavelength: 450 nm, and reference wavelength: 650 nm) were determined on a multifunctional fully-automatic microplate reader.\nas §7, §8"}, "[10]": {"conditions": "115.38 μmol/kg i.v., 7 days, anatomy on day 8"}},
  "note": "“Also recorded” adds a separate entry of the source.",
  "data": [
    {"smiles": "CC(C)OC(=O)[C@H](C)N[P@](=O)(OC[C@H]1S[C@@H](n2ccc(N)nc2=O)[C@@H](F)[C@@H]1O)Oc1ccccc1", "note": "[Compound C8, (S)-isopropyl 2-(((S)-(((2R,3S,4S,5R)-5-(4-amino-2-oxopyrimidin-1(2H)-yl)-4-fluoro-3-hydroxytetrahydrothiophen-2-yl)methoxy)(phenoxy)phosphoryl)amino)propanoate]", "values": [
      {"measurement": "TGI (%)", "setting": "[1]; 0.06 mmol/kg p.o., twice a week for 3 weeks", "value": 47.7, "unit": "%"},
      {"measurement": "TGI (%)", "setting": "[1]; 0.12 mmol/kg p.o., twice a week for 3 weeks", "value": 53.2, "unit": "%"},
      {"measurement": "TGI (%)", "setting": "[1]; 0.23 mmol/kg p.o., once a week for 3 weeks", "value": 51.0, "unit": "%"},
      {"measurement": "dosage at which death of animals occurred", "setting": "[2]; oral gavage", "value": "~115", "unit": "µmol/kg"},
      {"measurement": "Results: mortality (3 Male + 3 Female)", "setting": "[2]; ~77 μmol/kg oral gavage", "value": "survived"},
      {"measurement": "Results: clinical symptoms (3 Male + 3 Female)", "setting": "[2]; ~6 mg/kg (~12 μmol/kg) oral gavage", "value": "No abnormal symptoms"},
      {"measurement": "Results: clinical symptoms (3 Male + 3 Female)", "setting": "[2]; ~20 mg/kg (~38 μmol/kg) oral gavage", "value": "No abnormal symptoms"},
      {"measurement": "inhibitory effect on colorectal cancer cell HCT-15 (in words)", "setting": "[3]; FIG. 1: 5-10000 nM", "value": "potent inhibitory effects; also recorded: excellent inhibitory effects"},
      {"measurement": "IC50", "setting": "[3]; Homo sapiens, HCT-15, CCK-8, 72 h incubation", "value": 1.96, "unit": "µM"},
      {"measurement": "TGI (%)", "setting": "[4]; 0.04 mmol/kg i.v.", "value": 26.9, "unit": "%"},
      {"measurement": "TGI (%)", "setting": "[4]; 0.12 mmol/kg i.v.", "value": 74.9, "unit": "%"},
      {"measurement": "TGI (%)", "setting": "[4]; 0.24 mmol/kg i.v.", "value": 82.9, "unit": "%"},
      {"measurement": "inhibitory effect on pancreatic cancer cell BxPC-3 (in words)", "setting": "[5]; FIG. 1: 5-10000 nM", "value": "potent inhibitory effects; also recorded: excellent inhibitory effects"},
      {"measurement": "IC50", "setting": "[5]; Homo sapiens, BXPC-3, CCK-8, 72 h incubation", "value": 0.705, "unit": "µM"},
      {"measurement": "body weight increase on day 8, female mice", "setting": "[6]; 115.38 μmol/kg i.v., 7 days", "value": 13.1, "unit": "%"},
      {"measurement": "body weight increase on day 8, male mice", "setting": "[6]; 115.38 μmol/kg i.v., 7 days", "value": 26.7, "unit": "%"},
      {"measurement": "leukocyte count decrease vs vehicle group, female", "setting": "[6]; [10]", "value": 45, "unit": "%"},
      {"measurement": "leukocyte count decrease vs vehicle group, male", "setting": "[6]; [10]", "value": 49, "unit": "%"},
      {"measurement": "platelet count decrease vs vehicle group, female", "setting": "[6]; [10]", "value": 43, "unit": "%"},
      {"measurement": "platelet count decrease vs vehicle group, male", "setting": "[6]; [10]", "value": 39, "unit": "%"},
      {"measurement": "symptoms observed on day 8", "setting": "[6]; compound C8 60.9 mg/kg (115.38 μmol/kg) i.v., 7 consecutive days", "value": "no relevant abnormalities were observed"},
      {"measurement": "TGI (%)", "setting": "[7]; 190 μmol/kg i.v.", "value": 109, "unit": "%"},
      {"measurement": "Body weight change", "setting": "[7]; 190 μmol/kg i.v.", "value": "+8.1%"},
      {"measurement": "Tumor regression, CR (complete tumor regression)", "setting": "[7]; 190 μmol/kg i.v.", "value": "8/8 CR"},
      {"measurement": "TGI (%)", "setting": "[7]; 190 μmol/kg p.o.", "value": 110, "unit": "%"},
      {"measurement": "Body weight change", "setting": "[7]; 190 μmol/kg p.o.", "value": "+8.1%"},
      {"measurement": "Tumor regression, CR (complete tumor regression)", "setting": "[7]; 190 μmol/kg p.o.", "value": "8/8 CR"},
      {"measurement": "TGI (%)", "setting": "[8]; 0.02 mmol/kg p.o.", "value": 25.6, "unit": "%"},
      {"measurement": "TGI (%)", "setting": "[8]; 0.06 mmol/kg i.v.", "value": 81.8, "unit": "%"},
      {"measurement": "TGI (%)", "setting": "[8]; 0.06 mmol/kg p.o.", "value": 79.1, "unit": "%"},
      {"measurement": "TGI (%)", "setting": "[8]; 0.19 mmol/kg p.o.", "value": 138.5, "unit": "%"},
      {"measurement": "inhibitory effect on colorectal cancer cell HCT-116 (in words)", "setting": "[9]; FIG. 1: 5-10000 nM", "value": "potent inhibitory effects; also recorded: excellent inhibitory effects"},
      {"measurement": "IC50", "setting": "[9]; Homo sapiens, HCT-116, CCK-8, 72 h incubation", "value": 0.485, "unit": "µM"}
    ]}
  ]
}
